Measurements: ChEMBL document CHEMBL3860084, “Allyl and prenyl ethers of mansonone G, new potential semisynthetic antibacterial agents” (2016)
≈ marks a conversion by molar mass, not a printed value.

How the values were obtained:
Staphylococcus aureus [1] = experiment: Antibacterial activity against Staphylococcus aureus ATCC 25923 at 1000 uM after 24 hrs by agar well-diffusion method; type: functional; settings: ATCC 25923, 24 h, read-out: DIZ
Streptococcus mutans [2] = experiment: Antibacterial activity against Streptococcus mutans ATCC 25175 at 1000 uM after 24 hrs by agar well-diffusion method; type: functional; settings: ATCC 25175, 24 h, read-out: DIZ
Streptococcus sobrinus [3] = experiment: Antibacterial activity against Streptococcus sobrinus KCCM 11898 at 1000 uM after 24 hrs by agar well-diffusion method; type: functional; settings: KCCM 11898, 24 h, read-out: DIZ
Cutibacterium acnes [4] = experiment: Antibacterial activity against Propionibacterium acnes KCCM 41747 at 1000 uM after 24 hrs by agar well-diffusion method; type: functional; settings: KCCM 41747, 24 h, read-out: DIZ
Salmonella typhi [5] = experiment: Antibacterial activity against Salmonella typhi ATCC 422 at 1000 uM after 24 hrs by agar well-diffusion method; type: functional, Salmonella enterica subsp. enterica serovar Typhi; settings: Salmonella enterica, ATCC 422, 24 h; read-out: DIZ
Staphylococcus aureus [6] = experiment: Antibacterial activity against Staphylococcus aureus ATCC 25923 by resazurin based broth microdilution method; type: functional
Streptococcus mutans [7] = experiment: Antibacterial activity against Streptococcus mutans ATCC 25175 by resazurin based broth microdilution method; type: functional
Streptococcus sobrinus [8] = experiment: Antibacterial activity against Streptococcus sobrinus KCCM 11898 by resazurin based broth microdilution method; type: functional
Cutibacterium acnes [9] = experiment: Antibacterial activity against Propionibacterium acnes KCCM 41747 by resazurin based broth microdilution method; type: functional
Salmonella typhi [10] = experiment: Antibacterial activity against Salmonella typhi ATCC 422 by resazurin based broth microdilution method; type: functional, Salmonella enterica subsp. enterica serovar Typhi; settings: Salmonella enterica
Staphylococcus aureus [11] = experiment: Antibacterial activity against Staphylococcus aureus ATCC 25923 at 500 uM after 24 hrs by agar well-diffusion method; type: functional; settings: ATCC 25923, 24 h, read-out: DIZ
Streptococcus mutans [12] = experiment: Antibacterial activity against Streptococcus mutans ATCC 25175 at 500 uM after 24 hrs by agar well-diffusion method; type: functional; settings: ATCC 25175, 24 h, read-out: DIZ
Streptococcus sobrinus [13] = experiment: Antibacterial activity against Streptococcus sobrinus KCCM 11898 at 500 uM after 24 hrs by agar well-diffusion method; type: functional; settings: KCCM 11898, 24 h, read-out: DIZ
Cutibacterium acnes [14] = experiment: Antibacterial activity against Propionibacterium acnes KCCM 41747 at 500 uM after 24 hrs by agar well-diffusion method; type: functional; settings: KCCM 41747, 24 h, read-out: DIZ
Salmonella typhi [15] = experiment: Antibacterial activity against Salmonella typhi ATCC 422 at 500 uM after 24 hrs by agar well-diffusion method; type: functional, Salmonella enterica subsp. enterica serovar Typhi; settings: Salmonella enterica, ATCC 422, 24 h; read-out: DIZ

Row | SMILES | zone of inhibition at 1000 µM (Staphylococcus aureus [1]) [mm] | zone of inhibition at 1000 µM (Streptococcus mutans [2]) [mm] | zone of inhibition at 1000 µM (Streptococcus sobrinus [3]) [mm] | zone of inhibition at 1000 µM (Cutibacterium acnes [4]) [mm] | zone of inhibition at 1000 µM (Salmonella typhi [5]) [mm] | MIC (Staphylococcus aureus [6]) [µM] | MIC (Streptococcus mutans [7]) [µM] | MIC (Streptococcus sobrinus [8]) [µM] | MIC (Cutibacterium acnes [9]) [µM] | MIC (Salmonella typhi [10]) [µM] | zone of inhibition at 500 µM (Staphylococcus aureus [11]) [mm] | zone of inhibition at 500 µM (Streptococcus mutans [12]) [mm] | zone of inhibition at 500 µM (Streptococcus sobrinus [13]) [mm] | zone of inhibition at 500 µM (Cutibacterium acnes [14]) [mm] | zone of inhibition at 500 µM (Salmonella typhi [15]) [mm]
1 | COc1cc(C)c2c(c1C(C)C)C=C(C)C(=O)C2=O | 15.3 | 11.3 | 10.7 | 13.2 | 10.7 | – | – | – | – | – | – | – | – | – | –
2 | C=CCOc1cc(C)c2c(c1C(C)C)C=C(C)C(=O)C2=O | 23 | 17.3 | 16 | 14.8 | 14.5 | 0.975 (≈ 0.277 µg/mL) | 31.2 (≈ 8.89 µg/mL) | 15.6 (≈ 4.44 µg/mL) | 31.2 (≈ 8.89 µg/mL) | 62.5 (≈ 17.8 µg/mL) | – | – | – | – | –
3 | CCCCCCCC(=O)Oc1cc(C)c2c(c1C(C)C)C=C(C)C(=O)C2=O | 8.7 | 10.3 | 11.3 | 11.5 | 9.6 | – | – | – | – | – | – | – | – | – | –
4 | CC1=C2OCC(C)c3c(O)cc(C)c(c32)C(=O)C1=O (stereo not given) | 12 | 10.3 | 8.3 | 11.9 | 11 | 250 (≈ 64.6 µg/mL) | 62.5 (≈ 16.1 µg/mL) | 62.5 (≈ 16.1 µg/mL) | 125 (≈ 32.3 µg/mL) | 31.2 (≈ 8.07 µg/mL) | – | – | – | – | –
5 | CCCC(=O)Oc1cc(C)c2c(c1C(C)C)C=C(C)C(=O)C2=O | 18 | 12.7 | 13.7 | 13 | 10.7 | 62.5 (≈ 19.6 µg/mL) | – | – | – | – | – | – | – | – | –
6 | CCOc1cc(C)c2c(c1C(C)C)C=C(C)C(=O)C2=O | 16 | 18 | 14 | 13.3 | 10.8 | – | 62.5 (≈ 17 µg/mL) | 31.2 (≈ 8.51 µg/mL) | 62.5 (≈ 17 µg/mL) | – | – | – | – | – | –
7 | CC(C)=CCOc1cc(C)c2c(c1C(C)C)C=C(C)C(=O)C2=O | 23.7 | 17.7 | 16.7 | 15 | 16.3 | 0.975 (≈ 0.305 µg/mL) | 31.2 (≈ 9.76 µg/mL) | 31.2 (≈ 9.76 µg/mL) | 31.2 (≈ 9.76 µg/mL) | 62.5 (≈ 19.5 µg/mL) | – | – | – | – | –
8 | CCCCCCCCOc1cc(C)c2c(c1C(C)C)C=C(C)C(=O)C2=O | 20 | 20 | 15.7 | 14.6 | 16.3 | 15.6 (≈ 5.56 µg/mL) | 31.2 (≈ 11.1 µg/mL) | 31.2 (≈ 11.1 µg/mL) | 31.2 (≈ 11.1 µg/mL) | 31.2 (≈ 11.1 µg/mL) | – | – | – | – | –
9 | CCCCCCCCCCCCOc1cc(C)c2c(c1C(C)C)C=C(C)C(=O)C2=O | 9 | 9 | 8 | 11.9 | 11.5 | – | – | – | – | – | – | – | – | – | –
10 | CCCCCCCCCC(=O)Oc1cc(C)c2c(c1C(C)C)C=C(C)C(=O)C2=O | 7 | 9.7 | 10.7 | 11.4 | 8.2 | – | – | – | – | – | – | – | – | – | –
11 | CCCCCC(=O)Oc1cc(C)c2c(c1C(C)C)C=C(C)C(=O)C2=O | 14.7 | 12 | 12.7 | 11.6 | 9.7 | – | – | – | – | – | – | – | – | – | –
12 | CC(C)=CCC/C(C)=C/COc1cc(C)c2c(c1C(C)C)C=C(C)C(=O)C2=O | 14 | 16.2 | 11.5 | 11.1 | 14 | – | – | – | – | 125 (≈ 47.6 µg/mL) | – | – | – | – | –
13 | CCCCOc1cc(C)c2c(c1C(C)C)C=C(C)C(=O)C2=O | 18 | 18.3 | 15.5 | 13.6 | 12 | 15.6 (≈ 4.69 µg/mL) | 7.8 (≈ 2.34 µg/mL) | 125 (≈ 37.5 µg/mL) | 15.6 (≈ 4.69 µg/mL) | 3.9 (≈ 1.17 µg/mL) | – | – | – | – | –
14 | CC1=Cc2c(C(C)C)ccc(C)c2C(=O)C1=O | 12.7 | 13.7 | 9.3 | 13.3 | 11.3 | 62.5 (≈ 14.3 µg/mL) | 15.6 (≈ 3.56 µg/mL) | 31.2 (≈ 7.13 µg/mL) | 62.5 (≈ 14.3 µg/mL) | 31.2 (≈ 7.13 µg/mL) | – | – | – | – | –
15 | O=C(N[C@H](CO)[C@H](O)c1ccc([N+](=O)[O-])cc1)C(Cl)Cl [CHLORAMPHENICOL] | – | – | – | – | – | – | – | – | – | – | 20.7 | 25.7 | 25.3 | 30 | 24.8
16 | CC1=C2OCC(C)c3ccc(C)c(c32)C(=O)C1=O (stereo not given) [MANSONONE E] | 19.7 | 20.3 | 16.7 | 13.5 | 11.6 | 31.2 (≈ 7.57 µg/mL) | 3.9 (≈ 0.945 µg/mL) | 15.6 (≈ 3.78 µg/mL) | 31.2 (≈ 7.57 µg/mL) | 15.6 (≈ 3.78 µg/mL) | – | – | – | – | –
17 | CC1=Cc2c(c(C)cc(O)c2C(C)C)C(=O)C1=O [MANSONONE G] | 13.7 | 14.7 | 10 | 15.6 | 11.9 | 62.5 (≈ 15.3 µg/mL) | 31.2 (≈ 7.63 µg/mL) | 31.2 (≈ 7.63 µg/mL) | 31.2 (≈ 7.63 µg/mL) | 15.6 (≈ 3.81 µg/mL) | – | – | – | – | –
